In patent US4551450A, “Rifamycin hydrazones, pharmaceutical compositions containing them and their use” (Ciba-Geigy Corporation, priority 1984, dated 1985):
≈ marks a conversion by molar mass, not a printed value. Read-outs that look alike come from different tables or passages of the source.

Tests used:
[1] = tested on: Mycobacterium tuberculosis TB H3 Rv; test: Antituberculotic action, minimum inhibitory concentration in a plate test in vitro; format: cell-based; conditions: M. tuberculosis TB H3 Rv; for MIC: Mycobacterium tuberculosis, TBH3RV, read-out: Antituberculotic action, MIC (minimum inhibitory concentration), plate test in vitro; for Antituberculotic action, MIC (minimum inhibitory concentration): plate test in vitro
Description: (§1) (2) Test organism: Mycobacterium tuberculosis TB H3 Rv
(3) Minimum inhibitory concentration in a plate test in vitro.

[2] = Pharmacokinetics in mice; format: in vivo; conditions: for half-life / Cmax: mouse; for half-life: read-out: t/2 (half-life period of excretion) (converted); for Cmax / Cmax (highest concentration of the active ingredient in the blood plasma): blood plasma; for Cmax: read-out: Cmax (highest concentration of the active ingredient in the blood plasma)
Description: (§2) (5) Half-life period of excretion (in hours).
(§3) (6) Highest concentration of the active ingredient in the blood plasma.

[3] = tested on: Mycobacterium tuberculosis TB H3 Rv; test: Antituberculotic action, in vivo test (mice), administration p.o.; parameters: species or system Mycobacterium tuberculosis; mice; conditions: for ED50: Mycobacterium tuberculosis, TBH3RV, po
Description: as §1
(4) In vivo test (mice); administration p.o.

[4] = Pharmacokinetics in rats; format: in vivo
Description: as §2, §3

[5] = in vivo, mice, p.o., read-out: Antituberculotic action, ED50

For CO[C@H]1/C=C/O[C@@]2(C)Oc3c(C)c(O)c4c(O)c(c(C=NN5CCN6c7ccccc7CCC6C5)c(O)c4c3C2=O)NC(=O)/C(C)=C\C=C\[C@H](C)[C@H](O)[C@@H](C)[C@@H](O)[C@@H](C)[C@H](OC(C)=O)[C@@H]1C (some centres unmarked) [Example 7, hydrazone of 3-formylrifamycin SV with 3-amino-2,3,4,4a,5,6-hexahydro-1H-pyrazino[1,2-a]quinoline], which MIC [1] is on record?
The MIC was 0.06 µg/mL (≈ 0.0659 µM).

And the half-life ([2]; in vivo)?
The half-life was 32.2 h.

What about the Cmax ([2]; plasma) of the same compound?
The Cmax was 24000 ng/mL.

What about the ED50 [3, 5] of the same compound?
The ED50 was 4.5 mg/kg.

Which MIC [1] does the source give for CO[C@H]1/C=C/O[C@@]2(C)Oc3c(C)c(O)c4c(O)c(c(C=NN5CCN6CCSCC6C5)c(O)c4c3C2=O)NC(=O)/C(C)=C\C=C\[C@H](C)[C@H](O)[C@@H](C)[C@@H](O)[C@@H](C)[C@H](OC(C)=O)[C@@H]1C (some centres unmarked) [Example 8, hydrazone of 3-formylrifamycin SV with 6-aminoperhydropyrazolo[2,1-c]-p-thiazine] here?
Its MIC is 0.2 µg/mL (≈ 0.227 µM).

And the half-life ([2]; in vivo)?
The half-life was 8.9 h.

And the Cmax ([2]; plasma)?
The Cmax was 72000 ng/mL.

And the ED50 [3, 5]?
The ED50 was 8 mg/kg.

With COC1C=COC2(C)Oc3c(C)c(O)c4c(O)c(c(C=NN5CC6CCCCN6CC5C)c(O)c4c3C2=O)NC(=O)C(C)=CC=CC(C)C(O)C(C)C(O)C(C)C(OC(C)=O)C1C (single isomer, unassigned) [Example 5 Isomer C, hydrazone of 3-formylrifamycin SV with 3-amino-2-methylperhydro-1H-pyrido[1,2-a]pyrazine] as the compound, how does the “Antituberculotic action, MIC (minimum inhibitory concentration)” value ([1]; listed as 5 Isomer C) read?
Its value is 0.06 µg/mL.

And the “Cmax (highest concentration of the active ingredient in the blood plasma)” value ([2]; listed as 5 Isomer C)?
Its value is 23700 ng/mL.

What about the “t/2 (half-life period of excretion)” value ([2]; listed as 5 Isomer C) of the same compound?
Its value is 15 h.

And the “Antituberculotic action, ED50” value ([3]; in vivo, mice, p.o., listed as 5 Isomer C)?
The value was 3 mg/kg.

Which results are given for COC1C=COC2(C)Oc3c(C)c(O)c4c(O)c(c(C=NN5CC6CCCCN6CC5C)c(O)c4c3C2=O)NC(=O)C(C)=CC=CC(C)C(O)C(C)C(O)C(C)C(OC(C)=O)C1C (single isomer, unassigned) [Example 5 Isomer D, hydrazone of 3-formylrifamycin SV with 3-amino-2-methylperhydro-1H-pyrido[1,2-a]pyrazine]?
Antituberculotic action, MIC (minimum inhibitory concentration) ([1]; listed as 5 Isomer D): 0.06 µg/mL; Cmax (highest concentration of the active ingredient in the blood plasma) ([2]; listed as 5 Isomer D): 33600 ng/mL; t/2 (half-life period of excretion) ([2]; listed as 5 Isomer D): 25.1 h; Antituberculotic action, ED50 ([3]; in vivo, mice, p.o., listed as 5 Isomer D): 3 mg/kg

For COC1C=COC2(C)Oc3c(C)c(O)c4c(O)c(c(C=NN5CCN6CCCCC6C5)c(O)c4c3C2=O)NC(=O)C(C)=CC=CC(C)C(O)C(C)C(O)C(C)C(OC(C)=O)C1C (centres unmarked) [Example 1], which “Antituberculotic action, MIC (minimum inhibitory concentration)” value [1] is on record?
The value was 0.03 µg/mL.

What about the “t/2 (half-life period of excretion)” value [4] of the same compound?
The value was 17.0 h.

And the “Cmax (highest concentration of the active ingredient in the blood plasma)” value ([4]; blood plasma)?
The value was 24500 ng/mL.

And the “t/2 (half-life period of excretion)” value [2]?
The value was 20 h.

And the “Cmax (highest concentration of the active ingredient in the blood plasma)” value [2]?
The value was 27300 ng/mL.

And the “Antituberculotic action, ED50” value ([3]; in vivo, mice, p.o.)?
The value was 0.8 mg/kg.

What does the source list for CO[C@H]1/C=C/O[C@@]2(C)Oc3c(C)c(O)c4c(O)c(c(C=NN5CCN6CCCC6C5)c(O)c4c3C2=O)NC(=O)/C(C)=C\C=C\[C@H](C)[C@H](O)[C@@H](C)[C@@H](O)[C@@H](C)[C@H](OC(C)=O)[C@@H]1C (some centres unmarked) [Example 2, hydrazone of 3-formylrifamycin SV with 3-aminoperhydropyrrolo[1,2-a]pyrazine]?
MIC [1]: 0.1 µg/mL (≈ 0.118 µM); half-life ([4]; rat, in vivo, read-out: t/2 (half-life period of excretion) (converted)): 13.2 h; Cmax ([4]; rat, plasma, blood plasma, read-out: Cmax (highest concentration of the active ingredient in the blood plasma)): 11600 ng/mL; half-life ([2]; in vivo): 9.1 h; Cmax ([2]; plasma): 57700 ng/mL; ED50 [3, 5]: 2.5 mg/kg

Which “Antituberculotic action, MIC (minimum inhibitory concentration)” value ([1]; listed as 4 Isomer B) does the source give for CCC1CCC2CN(N=Cc3c4c(O)c5c(O)c(C)c6c(c5c3O)C(=O)[C@@](C)(O/C=C/[C@H](OC)[C@@H](C)[C@@H](OC(C)=O)[C@H](C)[C@H](O)[C@H](C)[C@@H](O)[C@@H](C)/C=C/C=C(/C)C(=O)N4)O6)CCN2C1 (single isomer, unassigned) [Example 4 Isomer B, hydrazone of 3-formylrifamycin SV with 3-amino-7-ethylperhydro-1H-pyrido[1,2-a]pyrazine] here?
Its value is 0.03 µg/mL.

And the “t/2 (half-life period of excretion)” value [2]?
Its value is 44.6 h.

And the “Cmax (highest concentration of the active ingredient in the blood plasma)” value [2]?
The value was 26400 ng/mL.

What about the “Antituberculotic action, ED50” value ([3]; in vivo, mice, p.o.) of the same compound?
Its value is 1 mg/kg.

Which “Antituberculotic action, MIC (minimum inhibitory concentration)” value [1] does the source give for COC1C=COC2(C)Oc3c(C)c(O)c4c(O)c(c(C=NN5CCN6CCN(C)CC6C5)c(O)c4c3C2=O)NC(=O)C(C)=CC=CC(C)C(O)C(C)C(O)C(C)C(OC(C)=O)C1C (centres unmarked) [Example 9, hydrazone of 3-formylrifamycin SV with 3-amino-6-methylperhydro-1H-pyrazino[1,2-a]pyrazine] here?
Its value is 0.1 µg/mL.

What does the source list for CO[C@H]1/C=C/O[C@@]2(C)Oc3c(C)c(O)c4c(O)c(c(C=NN5CCN6C(CCC7CCCCC76)C5)c(O)c4c3C2=O)NC(=O)/C(C)=C\C=C\[C@H](C)[C@H](O)[C@@H](C)[C@@H](O)[C@@H](C)[C@H](OC(C)=O)[C@@H]1C (single isomer, unassigned) [Example 6 Isomer A, hydrazone of 3-formylrifamycin SV with 3-aminoperhydro-1H-pyrazino[1,2-a]quinoline]?
Antituberculotic action, MIC (minimum inhibitory concentration) ([1]; listed as 6 Isomer A): 0.03 µg/mL; Cmax ([2]; in vivo): 56300 ng/mL; half-life ([2]; in vivo): 33.4 h

With CCC1CCC2CN(N=Cc3c4c(O)c5c(O)c(C)c6c(c5c3O)C(=O)[C@@](C)(O/C=C/[C@H](OC)[C@@H](C)[C@@H](OC(C)=O)[C@H](C)[C@H](O)[C@H](C)[C@@H](O)[C@@H](C)/C=C/C=C(/C)C(=O)N4)O6)CCN2C1 (single isomer, unassigned) [Example 4 Isomer A, hydrazone of 3-formylrifamycin SV with 3-amino-7-ethylperhydro-1H-pyrido[1,2-a]pyrazine] as the compound, how does the “Antituberculotic action, MIC (minimum inhibitory concentration)” value ([1]; listed as 4 Isomer A) read?
The value was 0.01 µg/mL.

What about the half-life ([2]; in vivo) of the same compound?
Its half-life is 55.1 h.

And the Cmax ([2]; plasma)?
The Cmax was 29500 ng/mL.

And the ED50 [3, 5]?
The ED50 was 0.8 mg/kg.

With CO[C@H]1/C=C/O[C@@]2(C)Oc3c(C)c(O)c4c(O)c(c(C=NN5CCN6C(C)CCCC6C5)c(O)c4c3C2=O)NC(=O)/C(C)=C\C=C\[C@H](C)[C@H](O)[C@@H](C)[C@@H](O)[C@@H](C)[C@H](OC(C)=O)[C@@H]1C (some centres unmarked) [Example 3, hydrazone of 3-formylrifamycin SV with 3-amino-8-methylperhydro-1H-pyrido[1,2-a]pyrazine] as the compound, how does the MIC [1] read?
The MIC was 0.4 µg/mL (≈ 0.456 µM).

What about the half-life ([2]; in vivo) of the same compound?
Its half-life is 14 h.

What about the Cmax ([2]; plasma) of the same compound?
The Cmax was 22600 ng/mL.

What about the ED50 ([3]; read-out: Antituberculotic action, ED50, in vivo, mice, p.o.) of the same compound?
The ED50 was 1 mg/kg.

Which “Antituberculotic action, MIC (minimum inhibitory concentration)” value ([1]; listed as 6 Isomer B) does the source give for CO[C@H]1/C=C/O[C@@]2(C)Oc3c(C)c(O)c4c(O)c(c(C=NN5CCN6C(CCC7CCCCC76)C5)c(O)c4c3C2=O)NC(=O)/C(C)=C\C=C\[C@H](C)[C@H](O)[C@@H](C)[C@@H](O)[C@@H](C)[C@H](OC(C)=O)[C@@H]1C (single isomer, unassigned) [Example 6 Isomer B, hydrazone of 3-formylrifamycin SV with 3-aminoperhydro-1H-pyrazino[1,2-a]quinoline] here?
The value was 0.007 µg/mL.

What about the “t/2 (half-life period of excretion)” value [2] of the same compound?
The value was 40.9 h.

What about the “Cmax (highest concentration of the active ingredient in the blood plasma)” value [2] of the same compound?
Its value is 34000 ng/mL.
